# Article PMC12144862, “Structural Basis of Sequential Enantioselective Epoxidation by a Flavin-Dependent Monooxygenase in Lasalocid A Biosynthesis” (Angewandte Chemie (International ed. in English), 2025)
# Target: T1, Lsd18 (Streptomyces lasalocidi, UniProt B5M9L6)
# T1 construct: recombinant Lsd18 with FAD; two molecules in the asymmetric unit
# Assay: LC-MS epoxidation assay
# Assay type: biochemical
# Conditions: forms mono- and bisepoxide
# T1 sequence (B5M9L6 whole entry): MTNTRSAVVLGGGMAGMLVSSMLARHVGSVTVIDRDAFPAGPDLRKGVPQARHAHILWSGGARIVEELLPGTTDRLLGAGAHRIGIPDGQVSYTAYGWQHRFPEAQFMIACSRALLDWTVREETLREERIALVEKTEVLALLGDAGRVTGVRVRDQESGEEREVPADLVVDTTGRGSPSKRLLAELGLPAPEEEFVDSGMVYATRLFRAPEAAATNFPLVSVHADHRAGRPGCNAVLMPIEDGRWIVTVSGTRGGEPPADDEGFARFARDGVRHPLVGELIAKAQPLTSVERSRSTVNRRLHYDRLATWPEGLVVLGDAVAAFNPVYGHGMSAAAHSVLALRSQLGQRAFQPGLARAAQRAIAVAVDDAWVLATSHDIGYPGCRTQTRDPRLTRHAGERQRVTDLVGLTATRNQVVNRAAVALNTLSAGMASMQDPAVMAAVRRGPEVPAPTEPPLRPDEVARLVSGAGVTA
compound,measurement,value
CC(=O)OC/C=C(\C)CC/C=C(\C)CCC=C(C)C [farnesyl acetate],LC-MS epoxidation assay,"Lsd18 transforms farnesyl acetate, a natural sesquiterpene, into a bisepoxide"
